Results published in patent US12708608B2, “Methods of treating schizophrenia and other neuropsychiatric disorders” (UNIVERSITY OF ROCHESTER, priority 2018, dated 2026).
Entries after “also recorded” stand apart in the source; their conditions may differ. Read-outs that look alike come from different tables or passages of the source.

How the values were obtained:
Format in all cases: cell-based, human
CTR astrocytes = assay: Potassium (86Rb) uptake by control-derived astrocytes; conditions: 4 CTR lines, drug-treated
Protocol: (§1) Potassium uptake Astrocytes were plated onto poly-ornithine- and laminin-coated 24-well plates with 30,000 cells/well. For the potassium uptake assay, astrocytes were incubated with ^86Rb (1.0-3.3 uCi/well) for 15 min, and then they were washed three time with ice-cold artificial cerebrospinal fluid (aCSF, 500 μL/well). For cell lysis, 0.5N NaOH (200 μL/well) was put into each well, which was put into 5 ml cocktail liquid (Ultima Gold, Fisher Scientific, 509050575) and measured by scintillation counter (Beckman Coulter, LS6500), and the results were normalized to both total protein (BCA Protein Assay Kit, Fisher Scientific, 23227) and cell number (Hemocytometer, Fisher Scientific, 02-671-54). The aCSF solution contained (in mM) 124 NaCl, 2.5 KCl, 1.75 NaH2PO4, 2 MgCl2, 2 CaCl2, 0.04 Vit.C, 10 glucose and 26 NaHCO3, pH 7.4.
Next, functional K^+ uptake was assessed directly, in cultured SCZ- and CTR-derived astrocytes. To obtain mature SCZ and CTR astrocyte cultures, CD44-sorted astrocyte-biased progenitors were cultured in base media supplemented with 10% fetal bovine serum (FBS) and 20 ng/ml BMP4 for 3 weeks, so as to potentiate the differentiation of mature, glial fibrillary acidic protein (GFAP)-expressing, fiber-bearing astrocytes (FIGS. 5A-5C). […] Astrocytes from 4 different SCZ and 4 different CTR lines were then incubated with ^86Rb, a surrogate monovalent cation for K^+ uptake (Larsen et al., “Contributions of the Na(+)/K(+)-ATPase, NKCC1, and Kir4.1 to Hippocampal K(+) Clearance and Volume Responses,” Glia 62:608-622 (2014), which is hereby incorporated by reference in its entirety), and rubidium uptake measured as a function of both cell number and total protein.

SCZ astrocytes = assay: Potassium (86Rb) uptake by schizophrenia-derived astrocytes; conditions: 4 SCZ lines, drug-treated
Protocol: as §1, with “The aCSF solution contained (in mM) 124 NaCl, 2.5 KCl, 1.75 NaH2PO4, 2 MgCl2, 2 CaCl2, 0.04 Vit.C, 10 glucose and 26 NaHCO3, pH 7.4.” left out
Next, functional K^+ uptake was assessed directly, in cultured SCZ- and CTR-derived astrocytes. […] Astrocytes from 4 different SCZ and 4 different CTR lines were then incubated with ^86Rb, a surrogate monovalent cation for K^+ uptake (Larsen et al., “Contributions of the Na(+)/K(+)-ATPase, NKCC1, and Kir4.1 to Hippocampal K(+) Clearance and Volume Responses,” Glia 62:608-622 (2014), which is hereby incorporated by reference in its entirety), and rubidium uptake measured as a function of both cell number and total protein.
To test this postulate, lentivirus was used to overexpress REST in CTR glial cells, and K^+ uptake by the transduced cells was assessed.

[1] = test system: REST-overexpressing CTR astrocytes; assay: Potassium (86Rb) uptake by CTR astrocytes transduced to over-express REST
[2] = test system: REST shRNAi-transduced SCZ astrocytes; assay: Potassium (86Rb) uptake by SCZ astrocytes with REST knockdown

## CCCCNc1cc(C(=O)O)cc(S(N)(=O)=O)c1Oc1ccccc1 [bumetanide]
CTR astrocytes
  K+ uptake by CTR astrocytes: significantly inhibited; also recorded: efficiently decreased
SCZ astrocytes
  K+ uptake by SCZ astrocytes: neither ouabain nor bumetanide affected; also recorded: neither affected
[1]; 86Rb uptake, lentiviral-REST transduced CTR astrocytes, drug-treated
  K+ uptake by REST-overexpressing CTR astrocytes: Neither ouabain nor bumetanide further decreased
[2]; 86Rb uptake, REST shRNAi-transduced SCZ astrocytes, drug-treated
  K+ uptake by SCZ glia with REST knockdown: significantly reduced; also recorded: significantly inhibited

## C[C@@H]1O[C@@H](O[C@H]2C[C@@H](O)[C@]3(CO)[C@H]4[C@H](O)C[C@]5(C)[C@@H](C6=CC(=O)OC6)CC[C@]5(O)[C@@H]4CC[C@]3(O)C2)[C@H](O)[C@H](O)[C@H]1O [ouabain]
CTR astrocytes
  K+ uptake by CTR astrocytes: significantly inhibited; also recorded: efficiently decreased
CTR astrocytes; listed as Ouabain
  K+ uptake by CTR astrocytes: significantly inhibited
SCZ astrocytes
  K+ uptake by SCZ astrocytes: neither ouabain nor bumetanide affected; also recorded: neither affected
[1]
  K+ uptake by REST-overexpressing CTR astrocytes: Neither ouabain nor bumetanide further decreased
[2]
  K+ uptake by SCZ glia with REST knockdown: significantly reduced; also recorded: significantly inhibited

## tertiapin (ALCNCNRIIIPHMCWKKCGKK; UniProt P56587 1-21, looked up) [drug which targets Kir (inwardly rectifying K+) channels]
CTR astrocytes
  K+ uptake by CTR astrocytes: did not
